Legend:
[1] = molecular target: Human immunodeficiency virus type 1 protease (Human immunodeficiency virus 1) (UniProt Q72874); experiment: Maximal inactivation rate of compound on HIV protease
[2] = molecular target: Human immunodeficiency virus type 1 protease (Human immunodeficiency virus 1) (UniProt Q72874); experiment: Half maximal inactivation rate of compound on HIV protease
[3] = molecular target: Human immunodeficiency virus type 1 protease (Human immunodeficiency virus 1) (UniProt Q72874); experiment: Maximal inactivation rate of compound on protease of Human immunodeficiency virus-1 (HIV-I) was determined
[4] = molecular target: Human immunodeficiency virus type 1 protease (Human immunodeficiency virus 1) (UniProt Q72874); experiment: Concentration of compound for half maximal inactivation rate on protease of Human immunodeficiency virus-1 (HIV-I) was determined

K [1] [min⁻¹]	K [2] [mM]	K [3] [min⁻¹]	K [4] [µM]	SMILES
0.004	11			O=[N+]([O-])c1ccc(OCC2CO2)cc1 (centres undefined)
		0.31	20	CC(C)C[C@@H]1O[C@@H]1[C@H](Cc1ccccc1)NC(=O)C(C)NC(Cc1ccccc1)C(=O)C(=O)OCc1ccccc1 (some centres undefined)

Reference: ChEMBL document CHEMBL1153692, “Inactivation of HIV-1 protease by a tripeptidyl epoxide” (Bioorg Med Chem Lett, 1992)
